Results as given in publication PMC9266449, “Dried Blood Spots as Matrix for Evaluation of Valproate Levels and the Immediate and Delayed Metabolomic Changes Induced by Single Valproate Dose Treatment” (International Journal of Molecular Sciences, 2022).
Where two headings read alike, the source gives them in different places. Blank lines part the entries; values can stand above or below the molecule they belong to.

Key:
[1] = source not stated; cited from earlier work
[2] = rats; cited from earlier work
[3] = set-up: method as in PMID 390116; conditions: whole blood concentrations, cited from earlier work
[4] = set-up: method as in PMID 390116; conditions: mean ± standard error; cited from earlier work
[5] = set-up: method as in PMID 3146521; conditions: female rats, 200 mg/kg oral gavage, cited from earlier work
[6] = human; cited from earlier work
[7] = Pharmacokinetics of VPA from DBS drug levels after intravenous bolus in rats; format: in vivo; conditions: Sprague-Dawley, rat, dried blood spots (whole blood), iv bolus 200 mg/kg, mean ± SD; for AUC(0-t): read-out: Area under the curve (AUC0–8 h); for clearance: read-out: Clearance (CL) (converted); for half-life: read-out: HL Lambda Z (terminal elimination half-life) (converted); for MRT: read-out: Mean residence time (MRT); for Vd: read-out: Volume of distribution (Vd)
Experimental: Sprague-Dawley rats (7–8 weeks old, males: 10, females: 10) were obtained from the Comparative Medicine Center (CMC) of NUS. The rats were housed in a specific pathogen free animal facility (24 °C, 60% relative humidity) at CMC and kept on a 12-h light/dark cycle with free access to food and water. Twenty-four hours before the study, a polyethylene tubing (I.D. 0.58 mm, O.D. 0.965 mm, Becton Dickinson, Sparks, MD 21152, USA) was implanted into the right jugular vein under isoflurane anesthesia. This catheter was used for drug injection and blood sampling.
At 9 am on the study day, five rats from each gender were administered VPA intravenously at a dose of 200 mg/kg body weight (treatment group). The rest of the 5 rats from each gender were given sodium chloride 0.9% intravenously, as the placebo control group. Prior to VPA administration, blood samples (approximately 300 µL) from each of the 10 male rats and 10 female rats were collected and kept in an ice box until they were processed. After VPA/saline injection, blood samples were collected at 0.5, 2.5, 5, 8 and 24 h, respectively, from the 20 rats. The 6 time points were anticipated to capture the metabolite fluctuations in a day. Within 30 min of collection, the blood samples were spotted in duplicates of 25 µL onto Guthrie paper (UK Neonatal Screening Laboratories Network, Whatman 903®) and were left to dry in the fume hood for at least 3 h, the minimum time required for complete dryness. After drying, the DBS were punched, and the cores (6 mm) obtained were placed inside the respective Eppendorf tubes. All the acquired DBS were stored at −80 °C until processing for analysis. One DBS was used for metabolomic analysis and the other one was used for drug level quantification.
Extraction of VPA from DBS was carried out using 480 µL of acetonitrile and 20 µL of 1 N NaOH, vortexed for 1 min and followed by sonication for 5 min. The resulting extracts were centrifuged at 3500× g, 22 °C for 15 min [29, 30]. An amount of 400 µL of the supernatant were transferred into 15 mL Kimble centrifuge glass tubes for drying under a stream of nitrogen at 30 °C, followed by the removal of water using toluene and drying under nitrogen again. The dried sample was then derivatized using 50 µL MSTFA with 1% TMCS with incubation at 70 °C for an optimum period of 50 min. […] After vortexing for 1 min, 80 µL of the final volume was transferred into a 200 µL conical base inert glass insert, placed inside a 2 mL amber autosampler glass vial.
An assay for quantification of VPA concentrations in DBS was optimized in accordance to the International Conference of Harmonization (ICH) guideline. The settings were as follows: an injection temperature of 200 °C, ion source temperature of 220 °C, split ratio of 1:5, the starting temperature set at 90 °C for 0.2 min, with initial gradient ramp at 10 °C/min to 120 °C and held for 0.5 min. The temperature was then increased at 65 °C/min up to 285 °C and held for another 0.5 min. The temperature ramp was then reduced to 10 °C/min to reach a temperature of 291 °C and held for 0.2 min, before continuing at 60 °C/min to reach a final temperature of 300 °C, with a hold at 300 °C for 5 min. Selective ion monitoring (SIM) mode was applied for identifier ions with an m/z value of 201 and qualifying ions with m/z values of 145 and 129. A calibration curve was established with 6 concentrations, ranging from 0.5 µg/mL to 5 mg/mL.
Concentration-time profiles of VPA after intravenous bolus injection were fitted into a non-compartmental model (WinNonlin Professional, Version 5.1, Pharsight Corporation, Mountain View, CA, USA). The pharmacokinetic parameters obtained included the area under the DBS concentration versus time curve (AUC0–8 h), apparent volume of distribution (Vd) clearance (Cl), terminal elimination half-life (HL Lambda Z) and mean residence time (MRT) of VPA.

[8] = both sexes, all rats (male and female pooled)

SMILES: CCCCCCCCCCCCCCCC(=O)O [Palmitic acid]
LogP [1]: 6.26

SMILES: CC(C)CCC[C@@H](C)[C@H]1CC[C@H]2[C@@H]3CC=C4C[C@@H](O)CC[C@]4(C)[C@H]3CC[C@]12C [Cholesterol]
LogP [1]: 7.11

SMILES: C[C@H](N)C(=O)O [Alanine]
LogP [1]: -0.68

AUC(0-t) ([7]; female rats): 363 ± 18.7 µg·h/mL
clearance ([7]; female rats): 2 mL/min
half-life ([7]; female rats): 2.01 ± 0.24 h
MRT ([7]; female rats): 1.46 ± 0.4 h
Vd ([7]; female rats): 0.21 ± 0.01 L
AUC(0-t) ([7]; male rats): 126 ± 39.2 µg·h/mL
clearance ([7]; male rats): 8.5 mL/min
half-life ([7]; male rats): 1.71 ± 0.18 h
MRT ([7]; male rats): 1.14 ± 0.28 h
Vd ([7]; male rats): 0.82 ± 0.23 L
AUC(0-t) [7, 8]: 245 ± 133 µg·h/mL
clearance [7, 8]: 5.33 mL/min
half-life [7, 8]: 1.86 ± 0.26 h
MRT [7, 8]: 1.3 ± 0.36 h
Vd [7, 8]: 0.51 ± 0.36 L
SMILES: CCCC(CCC)C(=O)O [VPA, 2-propyl-pentanoic acid]
Protein bound [2]: 64%
t1/2 ([3]; male rats, 150 mg/kg): 0.68 h
CL ([3]; rats dosed at 15 mg/kg): 0.525 ± 0.065 L/h
Vd ([3]; rats dosed at 15 mg/kg): 0.155 ± 0.025 L
Plasma/whole blood concentrations ratio [4]: 1.46 ± 0.03
AUC ([5]; plasma): 1019 ± 769 µg·h/mL
Maximum concentration (Cmax) at 0.5 h ([5]; plasma): 341 ± 18 µg/mL
t1/2 (plasma half-life) [5]: 1.0 ± 0.2 h
Protein bound [6]: 90%
